Here are results for 5 compounds from patent publication US5182386A (priority 1991, dated 1993).

In one assay the test system is GABA receptor. Particulars: Tallman et al., 1978; cited from earlier work.
The target in a further assay is GABAa receptor. Briefly: GABAa receptor (benzodiazepine site) binding, displacement of 3H-RO15-1788 [3H-Flumazenil]. Particulars: rat cortical tissue; 0.5 nM 3H-RO15-1788; 30 min at 4° C. As for the experimental part: Assays are carried out as described in Thomas and Tallman (J. Bio. Chem. 156: 9838-9842, J. Neurosci. 3:433-440, 1983). Rat cortical tissue is dissected and homogenized in 25 volumes (w/v) of 0.05M Tris HCl buffer (pH 7.4 at 4° C.). The tissue homogenate is centrifuged in the cold (4° ) at 20,000×g for 20'. The supernatant is decanted and the pellet is rehomogenized in the same volume of buffer and again centrifuged at 20,000×g. The supernatant is decanted and the pellet is frozen at -20° C. overnight. The pellet is then thawed and rehomogenized in 25 volume (original wt/vol) of buffer and the procedure is carried out twice. The pellet is finally resuspended in 50 volumes (w/vol of 0.05M Tris HCl buffer (pH 7.4 at […]).
Incubations contain […] of tissue homogenate, […] of radioligand 0.5 nM (^3 H-RO15-1788 [^3 H-Flumazenil] specific activity 80 Ci/mmol), drug or blocker and buffer to a total volume of […]. Incubations are carried for 30 min at 4° C. then are rapidly filtered through GFB filters to separate free and bound ligand. Filters are washed twice with fresh 0.05M Tris HCl buffer (pH 7.4 at 4° C. ) and counted in a liquid scintillation counter. […] diazepam is added to some tubes to determine nonspecific binding. Data are collected in triplicate determinations, averaged and % inhibition of total specific binding is calculated. Total Specific Binding=Total-Nonspecific. In some cases, the amounts of unlabeled drugs is varied and total displacement curves of binding are carried out. Data are converted to a form for the calculation of IC50 and Hill Coefficient (nH).

`CN1CCc2cc3c(cc2C1C1OC(=O)c2c1ccc1c2OCO1)OCO3` (single isomer, unassigned; (+)) [(+) bicuculline]: the “block of enhancement of benzodiazepine binding by GABA agonists” value with GABA receptor is “blocked”.
As for `CN1CCc2cc3c(cc2C1C1OC(=O)c2c1ccc1c2OCO1)OCO3` (single isomer, unassigned; (-)) [(-) bicuculline], the “block of enhancement of benzodiazepine binding by GABA agonists” value with GABA receptor is on record as “much less active”.
In the case of `COc1ccc(-c2nc3c[nH]c4ccccc4n-3c2=O)cc1` [Compound 1, 2-(4-methoxyphenyl)-imidazo-[1,2-a]-quinoxalin-1(5H)-one], on GABAa receptor, the IC50 came to 33 nM.
In turn, `O=c1c(-c2ccccc2)nc2c[nH]c3ccccc3n1-2` [Compound 2, 2-Phenyl-imidazo-[1,2-a]-quinoxalin-1(5H)-one] returned a concentration for half-maximal inhibition (IC50) on GABAa receptor of 33 nM.
With `COc1cccc(-c2nc3c[nH]c4ccccc4n-3c2=O)c1` [Compound 3, 2-(3-Methoxyphenyl)-imidazo-[1,2-a]-quinoxalin-1(5H)-one], the IC50 on GABAa receptor was found to be 70 nM.
